Experimental data: publication PMC3366831 (The Journal of Biological Chemistry, 2012)

Experiments:
PAPSS1 = molecular target: T1, PAPSS1 (Homo sapiens, UniProt O43252); assay: thermal unfolding by CD at […] nm; assay type: binding; conditions: about 0.5 μM protein, pH 7.3, 1 mM MgCl2, 25 °C/h
T1 sequence (O43252 1-624): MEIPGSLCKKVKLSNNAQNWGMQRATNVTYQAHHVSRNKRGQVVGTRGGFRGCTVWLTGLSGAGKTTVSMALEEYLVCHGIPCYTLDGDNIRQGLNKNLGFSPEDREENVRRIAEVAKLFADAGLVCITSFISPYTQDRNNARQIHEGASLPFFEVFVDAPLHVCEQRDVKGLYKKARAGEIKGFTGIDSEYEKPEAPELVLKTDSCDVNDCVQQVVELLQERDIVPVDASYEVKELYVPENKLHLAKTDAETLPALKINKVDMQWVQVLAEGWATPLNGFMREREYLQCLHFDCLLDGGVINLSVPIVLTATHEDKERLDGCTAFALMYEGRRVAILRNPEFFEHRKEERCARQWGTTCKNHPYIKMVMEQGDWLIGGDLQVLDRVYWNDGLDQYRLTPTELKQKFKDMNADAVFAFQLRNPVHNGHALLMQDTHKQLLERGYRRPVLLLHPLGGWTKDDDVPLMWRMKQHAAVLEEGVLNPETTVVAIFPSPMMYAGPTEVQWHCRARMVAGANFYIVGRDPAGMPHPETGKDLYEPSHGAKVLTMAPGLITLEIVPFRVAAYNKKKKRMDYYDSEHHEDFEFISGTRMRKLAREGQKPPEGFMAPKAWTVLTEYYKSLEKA

PAPSS2 = molecular target: T2, PAPSS2 (Homo sapiens, UniProt O95340); assay: thermal unfolding by CD at […] nm; assay type: binding; conditions: about 0.5 μM protein, pH 7.3, 1 mM MgCl2, 25 °C/h
T2 sequence (O95340 1-614): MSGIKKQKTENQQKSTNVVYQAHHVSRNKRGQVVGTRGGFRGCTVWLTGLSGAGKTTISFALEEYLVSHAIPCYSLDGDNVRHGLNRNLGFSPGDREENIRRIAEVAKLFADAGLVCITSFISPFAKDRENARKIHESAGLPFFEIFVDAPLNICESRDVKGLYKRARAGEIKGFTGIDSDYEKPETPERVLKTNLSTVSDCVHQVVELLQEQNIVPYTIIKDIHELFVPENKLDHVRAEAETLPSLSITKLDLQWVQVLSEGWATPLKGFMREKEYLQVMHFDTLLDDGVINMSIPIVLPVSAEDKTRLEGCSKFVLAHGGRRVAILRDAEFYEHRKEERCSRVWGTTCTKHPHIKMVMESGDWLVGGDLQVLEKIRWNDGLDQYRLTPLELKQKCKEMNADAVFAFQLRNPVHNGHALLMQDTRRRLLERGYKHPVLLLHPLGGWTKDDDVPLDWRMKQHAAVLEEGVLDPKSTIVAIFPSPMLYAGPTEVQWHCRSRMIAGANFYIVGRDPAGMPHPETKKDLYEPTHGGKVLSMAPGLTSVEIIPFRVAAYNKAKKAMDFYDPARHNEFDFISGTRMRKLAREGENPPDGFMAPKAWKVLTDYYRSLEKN

## Nc1ncnc2c1ncn2[C@@H]1O[C@H](COP(=O)(O)OP(=O)(O)O)[C@@H](O)[C@H]1O [ADP]
PAPSS1; 100 μM ADP
  thermal unfolding by CD at 225 nm: moderate effects on PAPSS1 and -S2 stability were observed for ADP and PAPS
PAPSS2; 100 μM ADP
  thermal unfolding by CD at 225 nm: moderate effects on PAPSS1 and -S2 stability were observed for ADP and PAPS

## Nc1ncnc2c1ncn2[C@@H]1O[C@H](COP(=O)(O)OP(=O)(O)OP(=O)(O)O)[C@@H](O)[C@H]1O [ATP]
PAPSS2; 100 μM ATP
  thermal unfolding by CD at 225 nm: ATP had a slight stabilizing effect on PAPSS2

## Nc1ncnc2c1ncn2[C@@H]1O[C@H](COP(=O)(O)OS(=O)(=O)O)[C@@H](OP(=O)(O)O)[C@H]1O [PAPS]
PAPSS1; 50 μM PAPS
  thermal unfolding by CD at 225 nm: moderate effects on PAPSS1 and -S2 stability were observed for ADP and PAPS
PAPSS2; 50 μM PAPS
  thermal unfolding by CD at 225 nm: moderate effects on PAPSS1 and -S2 stability were observed for ADP and PAPS
